Laboratory results from patent publication US20210392935A1, “PREPARATION COMPRISING A PROBIOTIC STRAIN OF THE GENUS BACILLUS MEGATERIUM AND A POLYUNSATURATED FATTY ACID COMPONENT” (Evonik Operations GmbH, priority 2018, published 2021).

What was measured:
Type in all cases: cell-based
[1] = system: Bacillus megaterium DSM 32963 cells; assay: Lipidometabolomics (UPLC-MS/MS) of PUFA oxygenation products in supernatants of B. megaterium DSM 32963 with AvailOm; settings: for abundance with dispersion formulation and/or bile acids compared to AvailOm alone (in words): B. megaterium DSM 32963 supernatants; for Extracellular concentration of PUFA oxygenation product: − bile acids, net of cell-free control
Protocol: To investigate the amount of extracellularly appearing 18-HEPE, the B. megaterium DSM 32963 cells were cultivated as described in example 1. The cells were resuspended in 10 ml LBG or LBG containing 9.76 g/I FeSSIF-V2 (biorelevant.com), which is a mixture of taurocholate, phospholipids and other components designed to simulate bile surfactants, and 2 ml of supplements (table 2) were added, respectively. Additionally, the supplements were also added respectively to the different media in shaking flasks without cells and treated under the same conditions (controls). The 18-HEPE concentrations of the culture supernatants and controls were determined after incubation at 16 h, 30° C. and 200 rpm (table 4). […] Of note, the omega-3 4 18-HEPE conversion rate detected by this method is up to 0.075, which exceeds the basal content of 18-HEPE of 0.0005% in an esterified fish oil, disclosed by WO 2017/041094. More importantly, we discovered that the omega-3 lysine salt is converted by Bacillus megaterium strains to a multitude of (final) SPM products at even higher concentrations than 18-HEPE (see example 6), which is of physiological relevance.
(§1) Bacterial supernatant samples were subjected to lipid extraction using RP-phase solid phase extraction and subsequently analyzed by ultra performance liquid chromatography ESI tandem mass spectrometry (UPLC-MS/MS) according to a published procedure. Under these conditions approximately 40 different LM, including 5-hydroxy-eicosapentaenoic acid 5-HEPE, 8-HEPE, 11-HEPE, 12-HEPE, 15-HEPE, 18-HEPE, 5-hydroxy-eicosatetraenoic acid (5-HETE), 8-HETE, 11-HETE, 12-HETE, 15-HETE, 4-hydroxy-DHA (4-HDHA), 7-HDHA, 13-HDHA, 14-HDHA, 17-HDHA, lipoxin A4 (LXA4), LXB4, resolvin E1 (RvE1), RvE3, resolvin D1-5 (RvD1-5), AT-RvD1, RvD2, protectin D1 (PD1), AT-PD1, maresin 1(MaR1), MaR2, plus 4 fatty acid substrates can be detected with a lower limit of detection of 1 pg.
To investigate if Bacillus megaterium is capable of producing other PUFA oxygenation products in addition to 18-HEPE, a lipidometabolomics screening of supernatants from Bacillus megaterium strain 32963 cultured as in example 4 with AvailOm® was performed, either dissolved or in a dispersion formulation, with or without bile acids. Cell-free preparations of AvailOm® formulations were treated and analyzed in parallel and served as controls for non-enzymatic, spontaneous formation of oxygenation products. Values given in table 6 display net concentrations of products formed, i.e. after subtraction of control values. […] Concentrations of several SPM exceed by far the concentrations of SPM found in human plasma samples, which are typically in a range of ˜20-100 pg/ml. For comparison, human breast milk contains ˜6.000 pg/ml RvE1 and ˜10.000 pg/ml RvD1 [42].

[2] = system: Bacillus megaterium DSM 33296; assay: Lipidometabolomics of supernatants of B. megaterium DSM 33296 with AvailOm dispersion; settings: Bacillus megaterium DSM 33296, AvailOm dispersion; net concentrations
Excerpt: as §1
(§2) 47 additional Bacillus megaterium strains sourced from various habitats were screened for their SPM production capacity to determine if this is a general phenomenon of the species Bacillus megaterium and to detect strain-specific differences in types and quantities of SPM being produced. Cells were cultured as detailed in example 4, with dispersion formulation of AvailOm® serving as omega-3 fatty acid source. Cell-free preparations of AvailOm® were treated and analyzed in parallel and served as controls for non-enzymatic, spontaneous formation of oxygenation products. […]

[3] = system: Bacillus megaterium DSM 33299; assay: Lipidometabolomics of supernatants of B. megaterium DSM 33299 with AvailOm dispersion; settings: Bacillus megaterium DSM 33299, AvailOm dispersion; net concentrations
Excerpt: as §1, §2

[4] = system: Bacillus megaterium strains; assay: Screen of 47 additional Bacillus megaterium strains for SPM production capacity; settings: 47 additional strains, AvailOm dispersion
Excerpt: as §1, §2

Molecule | abundance with dispersion formulation and/or bile acids compared to AvailOm alone (in words) [1] | other results
5-hydroxy-eicosatetraenoic acid [5-HETE] | lower | –
9-hydroxyoctadecadienoic acid [9-HODE] | lower | –
11-hydroxy-eicosapentaenoic acid [11-HEPE] | lower | –
12-hydroxy-eicosapentaenoic acid [12-HEPE] | lower | –
CCC=CCC=CCC=CCC=CC=CC(O)CCCC(=O)O (stereo not shown) [5-HEPE, 5-hydroxy-eicosapentaenoic acid] | lower | –
CCCCC/C=C\C/C=C\C=C\C(O)C/C=C\CCCC(=O)O (stereo not shown) [8-HETE, 8-hydroxy-eicosatetraenoic acid] | lower | –
CC/C=C\CC(O)/C=C/C=C\C/C=C\C/C=C\CCCC(=O)O (stereo not shown) [15-HEPE, 15-hydroxy-eicosapentaenoic acid] | lower | –
CCC(O)/C=C/C=C\C/C=C\C/C=C\C/C=C\CCCC(=O)O (stereo not shown) [18-HEPE, 18-hydroxy-eicosapentaenoic acid] | lower | –
CC/C=C\C[C@H](O)/C=C/C=C\C=C\C=C\[C@@H](O)[C@@H](O)C/C=C\CCC(=O)O [RvD1, resolvin D1] | – | Extracellular concentration of PUFA oxygenation product [2]: 3626 pg/mL; Extracellular concentration of PUFA oxygenation product [3]: 4389 pg/mL; Extracellular concentration of PUFA oxygenation product ([1]; AvailOm dispersion): 1863 pg/mL; Extracellular concentration of PUFA oxygenation product ([1]; AvailOm): 598 pg/mL
CC[C@H](O)C(O)/C=C/C=C/C=C\C/C=C\C/C=C\CCCC(=O)O (stereo partly shown) [RvE3, resolvin E3] | – | concentration in most of the strains [4]: up to 1.3 μg/ml
